# Literature values in patent US20210186880A1, “ORAL FORMULATIONS WITH INCREASED UPTAKE” (Brown University, priority 2018, published 2021).
# Read-outs that look alike come from different tables or passages of the source.
# Tests used:
# GLP-1 receptor [1] = biological target: T1, GLP-1 receptor (Homo sapiens, UniProt P43220)
# GLP-1 receptor [2] = biological target: T1, GLP-1 receptor; remark: listed apart in the source
# [3] = oral
# [4] = in vivo
# T1 sequence (P43220 24-463, species assumed): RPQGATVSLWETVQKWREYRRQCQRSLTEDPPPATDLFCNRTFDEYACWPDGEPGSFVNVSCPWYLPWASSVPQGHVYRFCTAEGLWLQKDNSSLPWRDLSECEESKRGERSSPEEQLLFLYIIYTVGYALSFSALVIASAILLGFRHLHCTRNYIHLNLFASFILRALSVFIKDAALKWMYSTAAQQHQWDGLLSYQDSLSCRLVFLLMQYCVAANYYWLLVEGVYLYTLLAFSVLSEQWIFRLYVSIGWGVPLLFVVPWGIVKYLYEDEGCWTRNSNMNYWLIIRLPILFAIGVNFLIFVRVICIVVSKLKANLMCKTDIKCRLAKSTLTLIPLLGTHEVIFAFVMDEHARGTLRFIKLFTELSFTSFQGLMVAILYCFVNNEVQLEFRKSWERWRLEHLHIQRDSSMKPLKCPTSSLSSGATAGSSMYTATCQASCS
substance,measurement,setting,value
GLP-1(9-36)-NH2,"binding affinity compared to the intact peptide, lower",GLP-1 receptor [1],100 fold
same,"agonistic activity, decrease",GLP-1 receptor [2],> 10000 fold
rGLP-1: rGLP-1 infused at 1.25-8.5 pmol/kg/min in a cited study,fasting serum glucose decrease,1.25 pmol/kg/min,22.7 mg/dL
same,fasting serum glucose decrease,2.5 pmol/kg/min,37.0 mg/dL
same,fasting serum glucose decrease,5.0 pmol/kg/min,53.9 mg/dL
same,fasting serum glucose decrease,8.5 pmol/kg/min,76.2 mg/dL
Glucagon-like peptide-1 [GLP-1],ghrelin secretion,[3],suppressed ghrelin secretion
same,insulin release,[3],potent effect on insulin release
same,plasma drug concentrations,[3]; dose-escalating,rapid and dose-dependent increase in plasma drug concentrations
same,bioavailabilities,"[3]; doses of 0.5, 1.0, 2.0, and 4.0 mg",lower than 10%
same,mean absolute bioavailability,[3]; relative to intravenous administration,4%
same,fasting and postprandial glucose values,"continuous 48-hour subcutaneous infusion, ~4-8 ng·kg^−1·min^−1",lowered fasting and postprandial glucose values
semaglutide: GLP-1 analog acylated with a spacer and C-18 fatty di-acid chain,plasma half-life,[4],long
